The results in this text go back to ChEMBL document CHEMBL1131513, “SAR studies of diaryltriazoles against bacterial two-component regulatory systems and their antibacterial activities” (Bioorg Med Chem Lett, 1998).

The structures appear in SMILES notation. Converted amounts (≈) assume the structure as drawn.

Test [1] concerns Bacteria. Put plainly: Minimum inhibitory concentration for Gram-positive antibacterial activity by using standard MIC broth assay method; 8-16. Type of test: functional.
In test [2] the target is T1, KinA/Spo0F (sporulation kinase A/sporulation initiation phosphotransferase F) (Bacillus subtilis (strain 168), UniProt P06628+P16497).
T1 sequence (P06628 whole entry): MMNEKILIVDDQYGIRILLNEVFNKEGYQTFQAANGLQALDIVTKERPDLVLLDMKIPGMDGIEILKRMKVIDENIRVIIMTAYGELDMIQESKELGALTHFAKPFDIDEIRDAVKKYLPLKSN
T1 sequence (P16497 whole entry): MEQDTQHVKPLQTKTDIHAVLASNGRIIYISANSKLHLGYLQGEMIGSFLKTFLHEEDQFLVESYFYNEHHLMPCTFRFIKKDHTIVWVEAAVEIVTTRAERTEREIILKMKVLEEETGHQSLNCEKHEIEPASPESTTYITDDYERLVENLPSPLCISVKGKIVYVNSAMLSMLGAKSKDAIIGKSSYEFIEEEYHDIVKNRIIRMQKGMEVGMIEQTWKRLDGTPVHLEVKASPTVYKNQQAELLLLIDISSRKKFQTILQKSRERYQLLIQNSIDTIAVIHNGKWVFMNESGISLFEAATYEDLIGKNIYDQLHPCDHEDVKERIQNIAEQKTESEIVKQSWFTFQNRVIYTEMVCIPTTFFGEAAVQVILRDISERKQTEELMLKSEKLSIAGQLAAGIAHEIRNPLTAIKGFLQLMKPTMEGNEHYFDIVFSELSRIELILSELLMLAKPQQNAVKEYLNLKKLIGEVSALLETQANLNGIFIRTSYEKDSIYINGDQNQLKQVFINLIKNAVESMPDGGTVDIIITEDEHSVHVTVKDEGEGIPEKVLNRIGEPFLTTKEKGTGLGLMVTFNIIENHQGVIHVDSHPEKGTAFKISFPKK
Put plainly: Ability to inhibit autophosphorylation of KinA/Sp0F assay. It counts as protein assay.

The test system of test [3] is Bacteria. Put plainly: Minimum inhibitory concentration for Gram-positive antibacterial activity by using standard MIC broth assay method; 0.25-1. It counts as functional.
Test [4] can be described thus: (§1) Inhibition of NRII and/or NRI phosphorylation in Escherichia coli.
Test [5] is described as follows: Ratio of NRII-NRI to KinA-Spo0F IC50s.
Test [6] deals with Bacteria. Description: Minimum inhibitory concentration for Gram-positive antibacterial activity by using standard MIC broth assay method; 0.5-1. Type of test: functional.
Test [7] concerns Bacteria. Put plainly: Minimum inhibitory concentration for Gram-positive antibacterial activity by using standard MIC broth assay method. It counts as functional.
Test [8] can be described thus: as §1. Type of test: functional.
For test [9], the system named is Bacteria. Description: Minimum inhibitory concentration for Gram-positive antibacterial activity by using standard MIC broth assay method; 0.1-0.5. It counts as functional.
Test [10] relates to Bacteria. Put plainly: Minimum inhibitory concentration for Gram-positive antibacterial activity by using standard MIC broth assay method; 4-8. It counts as functional.
Test [11] has as its system Bacteria. Description: Minimum inhibitory concentration for Gram-positive antibacterial activity by using standard MIC broth assay method; 0.25-0.5. Type of test: functional.
The subject of test [12] is Bacteria. Put plainly: Minimum inhibitory concentration for Gram-positive antibacterial activity by using standard MIC broth assay method; 0.5-2. Type of test: functional.

As usually defined, the MIC is the lowest concentration that inhibits growth of the organism. Lower therefore signals inhibition by little substance. As a reminder, the IC50 is the midpoint of a concentration-inhibition curve.

`NS(=O)(=O)c1ccc(O)c(-c2n[nH]c(-c3ccc(Cl)c(Cl)c3)n2)c1`: the MIC in test [1] was determined as 8 µg/mL (≈ 20.8 µM). For the same compound, the half-inhibitory concentration (IC50) in test [2] was 91 µM.

Take `Oc1c(Cl)cccc1-c1n[nH]c(-c2ccc(Cl)c(Cl)c2)n1`: the IC50 in [2] is greater than 500 µM.

On to `Oc1c(Cl)cc(Cl)cc1-c1n[nH]c(-c2ccc(Cl)c(C(F)(F)F)c2)n1`, for which the minimal inhibitory concentration (MIC) in test [3] was 0.25 µg/mL (≈ 0.612 µM). Besides, the IC50 in test [4] was 65 µM; in [2], 16 µM. Moreover, in test [5], the Ratio was determined as 4.1.

`Oc1c(Cl)cc(Cl)cc1-c1n[nH]c(-c2ccccc2)n1` registered an IC50 in test [2] of 380 µM.

For `CC(C)c1ccc(-c2n[nH]c(-c3cc(Cl)cc(Cl)c3O)n2)cc1`, the concentration for half-maximal inhibition (IC50) in [2] is greater than 500 µM.

Consider `Oc1c(Cl)cc(Cl)cc1-c1n[nH]c(-c2cccc(Cl)c2)n1`, for which, in test [6], the MIC was determined as 0.5 µg/mL (≈ 1.47 µM). Further, the half-inhibitory concentration (IC50) turned out to be 130 µM in [4] and 87 µM in test [2]. Moreover, the Ratio in [5] was found to be 1.5.

`O=[N+]([O-])c1cc(-c2n[nH]c(-c3ccc(Cl)c(Cl)c3)n2)c(O)c([N+](=O)[O-])c1`: the MIC in test [7] was greater than 64 µg/mL. Moreover, the IC50 in test [8] was found to be 28 µM; in test [2], 8 µM. Moreover, the Ratio in [5] is 3.5.

Consider `O=C(Nc1ccc(Cl)c(Cl)c1)c1cc(Cl)cc(Cl)c1O` [3,3',4',5-TETRACHLOROSALICYLANILIDE], for which the minimum inhibitory concentration (MIC) in [9] turned out to be 0.1 µg/mL (≈ 0.285 µM). The compound also returned an IC50 in [2] of 37 µM.

Consider `Cc1ccc(-c2n[nH]c(-c3cc(Cl)cc(Cl)c3O)n2)cc1C`, for which the minimal inhibitory concentration (MIC) in test [10] turned out to be 4 µg/mL (≈ 12 µM). For the same compound, in test [2], the IC50 is greater than 500 µM.

Compound `Oc1c(Br)cc(Br)cc1-c1n[nH]c(-c2ccc(Cl)c(Cl)c2)n1` gave an MIC in [11] of 0.25 µg/mL (≈ 0.539 µM). The compound further showed an IC50 in [2] of 24 µM.

In [3], `Oc1c(-c2n[nH]c(-c3ccc(Cl)c(Cl)c3)n2)cc(C(F)(F)F)cc1C(F)(F)F` yielded an MIC of 0.25 µg/mL (≈ 0.565 µM). The compound also showed an IC50 in test [2] of 44 µM.

As to `Oc1c(Br)cc(Br)cc1-c1n[nH]c(-c2ccc(Oc3ccccc3)cc2)n1`, the half-maximal inhibitory concentration (IC50) in test [4] is 75 µM; in test [2] it was 100 µM. Moreover, the Ratio in test [5] amounted to 0.75.

For `CC(C)(C)c1cc(-c2n[nH]c(-c3ccc(Cl)c(Cl)c3)n2)c(O)c(C(C)(C)C)c1`, the IC50 in [2] was greater than 500 µM.

Turning to `Oc1c(Cl)cc(Cl)cc1-c1n[nH]c(-c2ccc(Cl)cc2)n1`, the IC50 in test [4] was 57 µM; in [2], 80 µM. Besides, in test [5], the Ratio was found to be 0.71. Besides, the MIC in [12] turned out to be 0.5 µg/mL (≈ 1.47 µM).

Consider `O=[N+]([O-])c1ccc(-c2nc(-c3cc(Cl)cc(Cl)c3O)n[nH]2)cc1`, for which the IC50 in test [2] was greater than 500 µM.

The compound `Oc1ccc(Cl)cc1-c1n[nH]c(-c2ccc(Cl)c(Cl)c2)n1` came in with an MIC in [7] greater than 32 µg/mL. Further, in test [2], the IC50 is greater than 500 µM.

`Oc1c(Cl)cc(Cl)cc1-c1n[nH]c(-c2ccc(Cl)c(Cl)c2)n1` registered an MIC in [11] of 0.25 µg/mL (≈ 0.667 µM). Moreover, the IC50 in test [4] amounted to 150 µM; in test [2], 67 µM. Besides, the Ratio in test [5] came to 2.2.

With `COc1ccc(-c2n[nH]c(-c3cc(Cl)cc(Cl)c3O)n2)cc1`, the IC50 in [2] is greater than 500 µM.
